Test results as given in ChEMBL document CHEMBL5346961, “Discovery and Evaluation of 3-Quinoxalin Urea Derivatives as Potent, Selective, and Orally Available ATM Inhibitors Combined with Chemotherapy for the Treatment of Cancer via Goal-Oriented Molecule Generation and Virtual Screening” (J Med Chem, 2023).

molecular target: T1, Serine-protein kinase ATM (Homo sapiens, UniProt Q13315); experiment: Inhibition of ATM (unknown origin) preincubated with compound for 30 mins followed by substrate addition and measured after 2 hrs by HTRF method; details: not given
T1 sequence (Q13315 whole entry): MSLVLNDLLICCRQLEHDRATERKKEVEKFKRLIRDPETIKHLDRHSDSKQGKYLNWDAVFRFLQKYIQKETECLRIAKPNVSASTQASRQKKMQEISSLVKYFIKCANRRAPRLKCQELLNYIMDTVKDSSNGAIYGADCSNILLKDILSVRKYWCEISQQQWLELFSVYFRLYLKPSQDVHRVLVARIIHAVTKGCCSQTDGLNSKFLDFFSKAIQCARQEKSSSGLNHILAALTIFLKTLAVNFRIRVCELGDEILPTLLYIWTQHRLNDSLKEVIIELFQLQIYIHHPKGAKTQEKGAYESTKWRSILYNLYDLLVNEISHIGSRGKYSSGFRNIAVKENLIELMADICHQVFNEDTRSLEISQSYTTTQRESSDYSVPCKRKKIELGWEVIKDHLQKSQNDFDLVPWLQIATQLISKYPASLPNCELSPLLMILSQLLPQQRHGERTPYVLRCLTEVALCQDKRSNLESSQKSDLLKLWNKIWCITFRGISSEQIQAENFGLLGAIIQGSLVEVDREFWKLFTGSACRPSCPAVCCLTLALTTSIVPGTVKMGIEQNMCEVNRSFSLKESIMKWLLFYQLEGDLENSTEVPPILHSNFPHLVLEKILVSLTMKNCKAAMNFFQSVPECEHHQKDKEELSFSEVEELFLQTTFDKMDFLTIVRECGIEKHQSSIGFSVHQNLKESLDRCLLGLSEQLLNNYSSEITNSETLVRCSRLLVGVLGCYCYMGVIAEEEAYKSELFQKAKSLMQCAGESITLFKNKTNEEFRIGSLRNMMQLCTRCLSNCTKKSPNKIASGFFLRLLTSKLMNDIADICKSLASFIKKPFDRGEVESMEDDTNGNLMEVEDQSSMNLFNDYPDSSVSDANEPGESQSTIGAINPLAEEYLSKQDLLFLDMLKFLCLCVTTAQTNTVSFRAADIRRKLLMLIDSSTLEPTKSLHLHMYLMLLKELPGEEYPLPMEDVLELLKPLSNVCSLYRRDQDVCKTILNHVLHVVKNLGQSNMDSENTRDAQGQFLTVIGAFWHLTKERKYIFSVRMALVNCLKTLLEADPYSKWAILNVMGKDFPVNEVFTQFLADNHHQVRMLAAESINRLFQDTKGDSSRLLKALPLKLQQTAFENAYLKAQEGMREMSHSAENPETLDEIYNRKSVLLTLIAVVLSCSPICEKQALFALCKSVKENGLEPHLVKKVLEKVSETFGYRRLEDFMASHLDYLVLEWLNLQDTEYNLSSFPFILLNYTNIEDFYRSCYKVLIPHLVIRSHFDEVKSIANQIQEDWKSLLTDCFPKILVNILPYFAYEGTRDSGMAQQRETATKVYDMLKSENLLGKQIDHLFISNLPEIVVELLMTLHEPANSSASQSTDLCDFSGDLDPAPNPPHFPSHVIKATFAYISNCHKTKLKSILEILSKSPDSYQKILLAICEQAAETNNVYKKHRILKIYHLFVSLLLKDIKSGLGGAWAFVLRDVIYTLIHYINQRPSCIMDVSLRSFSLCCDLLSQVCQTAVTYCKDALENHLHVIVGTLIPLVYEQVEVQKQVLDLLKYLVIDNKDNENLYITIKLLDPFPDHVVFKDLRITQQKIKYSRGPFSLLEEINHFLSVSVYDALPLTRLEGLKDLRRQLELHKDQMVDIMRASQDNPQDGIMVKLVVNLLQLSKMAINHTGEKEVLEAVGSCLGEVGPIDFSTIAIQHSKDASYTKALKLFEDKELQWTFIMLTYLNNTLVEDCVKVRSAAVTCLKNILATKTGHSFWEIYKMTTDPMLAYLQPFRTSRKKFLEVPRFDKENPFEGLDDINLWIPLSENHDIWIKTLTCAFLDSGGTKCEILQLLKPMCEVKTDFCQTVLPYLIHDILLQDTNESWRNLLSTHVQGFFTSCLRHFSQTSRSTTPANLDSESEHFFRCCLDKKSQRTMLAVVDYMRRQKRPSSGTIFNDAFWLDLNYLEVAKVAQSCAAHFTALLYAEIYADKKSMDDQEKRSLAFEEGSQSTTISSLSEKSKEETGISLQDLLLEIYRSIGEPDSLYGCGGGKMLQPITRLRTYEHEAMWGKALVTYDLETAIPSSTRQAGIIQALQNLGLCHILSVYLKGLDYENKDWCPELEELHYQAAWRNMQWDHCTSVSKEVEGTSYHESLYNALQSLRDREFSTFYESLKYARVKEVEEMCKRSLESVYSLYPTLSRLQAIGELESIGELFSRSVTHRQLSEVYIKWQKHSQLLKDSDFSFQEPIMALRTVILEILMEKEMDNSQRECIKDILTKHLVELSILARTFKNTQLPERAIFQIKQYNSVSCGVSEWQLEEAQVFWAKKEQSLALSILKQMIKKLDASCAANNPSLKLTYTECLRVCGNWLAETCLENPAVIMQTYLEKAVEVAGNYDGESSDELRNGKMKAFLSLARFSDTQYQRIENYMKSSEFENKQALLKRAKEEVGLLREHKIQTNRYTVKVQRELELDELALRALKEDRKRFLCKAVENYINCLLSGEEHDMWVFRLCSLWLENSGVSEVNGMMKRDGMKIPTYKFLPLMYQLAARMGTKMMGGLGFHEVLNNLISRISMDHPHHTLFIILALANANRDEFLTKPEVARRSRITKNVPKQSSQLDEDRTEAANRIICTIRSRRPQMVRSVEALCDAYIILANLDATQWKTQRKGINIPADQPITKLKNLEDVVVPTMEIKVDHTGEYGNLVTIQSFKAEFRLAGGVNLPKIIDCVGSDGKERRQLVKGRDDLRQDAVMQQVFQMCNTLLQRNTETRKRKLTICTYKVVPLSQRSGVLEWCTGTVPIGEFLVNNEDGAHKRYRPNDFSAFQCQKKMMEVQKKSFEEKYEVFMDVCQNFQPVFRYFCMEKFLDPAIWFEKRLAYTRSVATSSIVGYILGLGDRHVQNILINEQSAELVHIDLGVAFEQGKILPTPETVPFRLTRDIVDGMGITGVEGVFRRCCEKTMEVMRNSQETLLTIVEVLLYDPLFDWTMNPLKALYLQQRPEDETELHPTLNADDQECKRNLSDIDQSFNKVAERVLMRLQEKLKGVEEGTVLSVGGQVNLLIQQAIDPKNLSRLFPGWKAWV

Compound | IC50 [nM]
CC(C)NC(=O)N(C)c1cnc2ccc(-c3cnc(OCCCN4CCCCC4)cc3F)cc2n1 | 5
CC(C)NC(=O)N(C)c1cnc2ccc(-c3ccc(OCCCN4CCCCC4)nc3C#N)cc2n1 | 16

Continued, values first:

IC50 [nM] | Compound
31 | CC(C)NC(=O)N(C)c1cnc2ccc(-c3ccc(OCC4CCN(C)C4)nc3)cc2n1 (stereo not drawn)
10 | CC(C)NC(=O)N(C)c1cnc2ccc(-c3ccc(OCCC4CCCN4C)nc3)cc2n1 (stereo not drawn)
22 | CC(C)NC(=O)N(C)c1cnc2ccc(-c3ccc(OCC4CCCN(C)C4)nc3)cc2n1 (stereo not drawn)
26 | CC(C)NC(=O)N(C)c1cnc2ccc(-c3ccc(OCCCCN(C)C)nc3)cc2n1

test system: HCT-116; experiment: Inhibition of colony formation in human HCT-116 cells at 0.01 uM preincubated for 1 hr followed by exposure to 2 Gy gamma irradiation and measured after 1 week by crystal violet staining based […] assay relative to control; format: functional; details: HCT-116, light or radiation study, time 169 hrs

Compound | inhibition at 0.01 µM [%]
Cc1cc(-c2ccc3ncc(N(C)C(=O)NC(C)C)nc3c2)cnc1OCCCN1CCCCC1 | -28.4
Cc1cc(OCCCN2CCCCC2)ncc1-c1ccc2ncc(N(C)C(=O)NC(C)C)nc2c1 | -19.8
CC(C)NC(=O)N(C)c1cnc2ccc(-c3ccc(OCCN4CCCCC4)nc3)cc2n1 | 24
CC(C)NC(=O)N(C)c1cnc2ccc(-c3ccc(OCCN4CCN(C)CC4)nc3)cc2n1 | 22.8
CC(C)NC(=O)N(C)c1cnc2ccc(-c3ccc(OCCCN4CCCC4=O)nc3)cc2n1 | 33.7
CC(C)NC(=O)N(C)c1cnc2ccc(-c3ccc(OCC4CCN(C)C4)nc3)cc2n1 (stereo not drawn) | 32.9
CC(C)NC(=O)N(C)c1cnc2ccc(-c3ccc(OC4CCN(C)CC4)nc3)cc2n1 | -7.74
CC(C)NC(=O)N(C)c1cnc2ccc(-c3ccc(OCCN4CCOCC4)nc3)cc2n1 | 16.9
CC(C)NC(=O)N(C)c1cnc2ccc(-c3ccc(OC4CCC(N(C)C)CC4)nc3)cc2n1 (stereo not drawn) | 11.3
CC(C)NC(=O)N(C)c1cnc2ccc(-c3ccc(OCCC4CCCN4C)nc3)cc2n1 (stereo not drawn) | 36.5
COCCCOc1ccc(-c2ccc3ncc(N(C)C(=O)NC(C)C)nc3c2)cn1 | -24.2
CC(C)NC(=O)N(C)c1cnc2ccc(-c3ccc(OCC4CCCN(C)C4)nc3)cc2n1 (stereo not drawn) | -8.09
CC(C)NC(=O)N(C)c1cnc2ccc(-c3cnc(OCCCN4CCCCC4)c(C(F)(F)F)c3)cc2n1 | -13.6
CC(C)NC(=O)N(C)c1cnc2ccc(-c3ccc(OCCCCN(C)C)nc3)cc2n1 | 20.2
CC(C)NC(=O)N(C)c1cnc2ccc(-c3cnc(OCCCN4CCCCC4)cc3F)cc2n1 | 27.4
CC(C)NC(=O)N(C)c1cnc2ccc(-c3ccc(OCCCN4CCCCC4)nc3C#N)cc2n1 | 14
CC(C)NC(=O)N(C)c1cnc2ccc(-c3ccc(OCCN4CCCC4)nc3)cc2n1 | 25
CC(C)NC(=O)N(C)c1cnc2ccc(-c3ccnc(OCCCN4CCCCC4)c3)cc2n1 | 32.2
CC(C)NC(=O)N(C)c1cnc2ccc(-c3cnc(OCCCN4CCCCC4)c(F)c3)cc2n1 | -3.96
CC(C)NC(=O)N(C)c1cnc2ccc(-c3ccc(OC(C)CN(C)C)nc3)cc2n1 (stereo not drawn) | 14.7

test system: not listed separately; experiment: Metabolic stability in human liver microsomes assessed as clearance at 1 uM in presence of NADPH-regenerating system by LC-MS/MS analysis; format: ADME, Microsome; details: not given

Compound | CLH [mL/min/g]
CC(C)NC(=O)N(C)c1cnc2ccc(-c3ccc(OCCN4CCCCC4)nc3)cc2n1 | 47
CC(C)NC(=O)N(C)c1cnc2ccc(-c3ccc(OCCCN4CCCC4=O)nc3)cc2n1 | 19
CC(C)NC(=O)N(C)c1cnc2ccc(-c3ccc(OCCCN4CCCCC4)nc3C#N)cc2n1 | 5.1

The next lines start with the values.

CLH [mL/min/g] | Compound
40 | CC(C)NC(=O)N(C)c1cnc2ccc(-c3ccc(OCC4CCN(C)C4)nc3)cc2n1 (stereo not drawn)
51 | CC(C)NC(=O)N(C)c1cnc2ccc(-c3ccc(OCCC4CCCN4C)nc3)cc2n1 (stereo not drawn)
36 | CC(C)NC(=O)N(C)c1cnc2ccc(-c3ccc(OCC4CCCN(C)C4)nc3)cc2n1 (stereo not drawn)
60 | CC(C)NC(=O)N(C)c1cnc2ccc(-c3ccc(OCCCCN(C)C)nc3)cc2n1
43 | CC(C)NC(=O)N(C)c1cnc2ccc(-c3ccc(OC(C)CN(C)C)nc3)cc2n1 (stereo not drawn)

test system: not listed separately; experiment: Metabolic stability in human liver microsomes assessed as half life at 1 uM in presence of NADPH-regenerating system by LC-MS/MS analysis; format: ADME, Microsome; details: not given

Compound | half-life at 1 µM [min]
CC(C)NC(=O)N(C)c1cnc2ccc(-c3ccc(OCCN4CCCCC4)nc3)cc2n1 | 38
CC(C)NC(=O)N(C)c1cnc2ccc(-c3ccc(OCCCN4CCCC4=O)nc3)cc2n1 | 90
CC(C)NC(=O)N(C)c1cnc2ccc(-c3ccc(OCCCN4CCCCC4)nc3C#N)cc2n1 | 277

The remaining lines, values ahead:

half-life at 1 µM [min] | Compound
50 | CC(C)NC(=O)N(C)c1cnc2ccc(-c3ccc(OCC4CCN(C)C4)nc3)cc2n1 (stereo not drawn)
48 | CC(C)NC(=O)N(C)c1cnc2ccc(-c3ccc(OCCC4CCCN4C)nc3)cc2n1 (stereo not drawn)
55 | CC(C)NC(=O)N(C)c1cnc2ccc(-c3ccc(OCC4CCCN(C)C4)nc3)cc2n1 (stereo not drawn)
35 | CC(C)NC(=O)N(C)c1cnc2ccc(-c3ccc(OCCCCN(C)C)nc3)cc2n1
55 | CC(C)NC(=O)N(C)c1cnc2ccc(-c3ccc(OC(C)CN(C)C)nc3)cc2n1 (stereo not drawn)

molecular target: T1, Serine-protein kinase ATM; experiment: Inhibition of ATM (unknown origin) assessed as remaining activity at 0.01 uM preincubated with compound for 30 mins followed by substrate addition and measured after 2 hrs by HTRF method relative to control; details: time 2.5 hrs

Compound | Activity [%]
Cc1cc(-c2ccc3ncc(N(C)C(=O)NC(C)C)nc3c2)cnc1OCCCN1CCCCC1 | 107
Cc1cc(OCCCN2CCCCC2)ncc1-c1ccc2ncc(N(C)C(=O)NC(C)C)nc2c1 | 96
CC(C)NC(=O)N(C)c1cnc2ccc(-c3ccc(OCCN4CCCCC4)nc3)cc2n1 | 86
CC(C)NC(=O)N(C)c1cnc2ccc(-c3ccc(OCCN4CCN(C)CC4)nc3)cc2n1 | 97
CC(C)NC(=O)N(C)c1cnc2ccc(-c3ccc(OCCCN4CCCC4=O)nc3)cc2n1 | 106
CC(C)NC(=O)N(C)c1cnc2ccc(-c3ccc(OCCN4CCOCC4)nc3)cc2n1 | 94
CC(C)NC(=O)N(C)c1cnc2ccc(-c3cnc(OCCCN4CCCCC4)c(C(F)(F)F)c3)cc2n1 | 90
CC(C)NC(=O)N(C)c1cnc2ccc(-c3cnc(OCCCN4CCCCC4)cc3F)cc2n1 | 29
CC(C)NC(=O)N(C)c1cnc2ccc(-c3ccc(OCCCN4CCCCC4)nc3C#N)cc2n1 | 26
CC(C)NC(=O)N(C)c1cnc2ccc(-c3ccnc(OCCCN4CCCCC4)c3)cc2n1 | 97
CC(C)NC(=O)N(C)c1cnc2ccc(-c3cnc(OCCCN4CCCCC4)c(F)c3)cc2n1 | 94

Other lines, results leading:

Activity [%] | Compound
72 | CC(C)NC(=O)N(C)c1cnc2ccc(-c3ccc(OCC4CCN(C)C4)nc3)cc2n1 (stereo not drawn)
100 | CC(C)NC(=O)N(C)c1cnc2ccc(-c3ccc(OC4CCN(C)CC4)nc3)cc2n1
108 | CC(C)NC(=O)N(C)c1cnc2ccc(-c3ccc(OC4CCC(N(C)C)CC4)nc3)cc2n1 (stereo not drawn)
43 | CC(C)NC(=O)N(C)c1cnc2ccc(-c3ccc(OCCC4CCCN4C)nc3)cc2n1 (stereo not drawn)
103 | COCCCOc1ccc(-c2ccc3ncc(N(C)C(=O)NC(C)C)nc3c2)cn1
43 | CC(C)NC(=O)N(C)c1cnc2ccc(-c3ccc(OCC4CCCN(C)C4)nc3)cc2n1 (stereo not drawn)
66 | CC(C)NC(=O)N(C)c1cnc2ccc(-c3ccc(OCCCCN(C)C)nc3)cc2n1
76 | CC(C)NC(=O)N(C)c1cnc2ccc(-c3ccc(OCCN4CCCC4)nc3)cc2n1
94 | CC(C)NC(=O)N(C)c1cnc2ccc(-c3ccc(OC(C)CN(C)C)nc3)cc2n1 (stereo not drawn)

molecular target: T1, Serine-protein kinase ATM; experiment: Inhibition of ATM (unknown origin) assessed as remaining activity at 1 uM preincubated with compound for 30 mins followed by substrate addition and measured after 2 hrs by HTRF method relative to control; details: time 2.5 hrs

Compound | Activity [%]
Cc1cc(-c2ccc3ncc(N(C)C(=O)NC(C)C)nc3c2)cnc1OCCCN1CCCCC1 | 29
Cc1cc(OCCCN2CCCCC2)ncc1-c1ccc2ncc(N(C)C(=O)NC(C)C)nc2c1 | 22
CC(C)NC(=O)N(C)c1cnc2ccc(-c3ccc(OCCN4CCCCC4)nc3)cc2n1 | 4
CC(C)NC(=O)N(C)c1cnc2ccc(-c3ccc(OCCN4CCN(C)CC4)nc3)cc2n1 | 22
CC(C)NC(=O)N(C)c1cnc2ccc(-c3ccc(OCCCN4CCCC4=O)nc3)cc2n1 | 71
CC(C)NC(=O)N(C)c1cnc2ccc(-c3ccc(OCCN4CCOCC4)nc3)cc2n1 | 13
CC(C)NC(=O)N(C)c1cnc2ccc(-c3cnc(OCCCN4CCCCC4)c(C(F)(F)F)c3)cc2n1 | 10
CC(C)NC(=O)N(C)c1cnc2ccc(-c3cnc(OCCCN4CCCCC4)cc3F)cc2n1 | -3
CC(C)NC(=O)N(C)c1cnc2ccc(-c3ccc(OCCCN4CCCCC4)nc3C#N)cc2n1 | -4
CC(C)NC(=O)N(C)c1cnc2ccc(-c3ccnc(OCCCN4CCCCC4)c3)cc2n1 | 10
CC(C)NC(=O)N(C)c1cnc2ccc(-c3cnc(OCCCN4CCCCC4)c(F)c3)cc2n1 | 6

Further lines, results first:

Activity [%] | Compound
1 | CC(C)NC(=O)N(C)c1cnc2ccc(-c3ccc(OCC4CCN(C)C4)nc3)cc2n1 (stereo not drawn)
25 | CC(C)NC(=O)N(C)c1cnc2ccc(-c3ccc(OC4CCN(C)CC4)nc3)cc2n1
54 | CC(C)NC(=O)N(C)c1cnc2ccc(-c3ccc(OC4CCC(N(C)C)CC4)nc3)cc2n1 (stereo not drawn)
33 | CC(C)CCCOc1ccc(-c2ccc3ncc(N(C)C(=O)NC(C)C)nc3c2)cn1
-3 | CC(C)NC(=O)N(C)c1cnc2ccc(-c3ccc(OCCC4CCCN4C)nc3)cc2n1 (stereo not drawn)
43 | COCCCOc1ccc(-c2ccc3ncc(N(C)C(=O)NC(C)C)nc3c2)cn1
0 | CC(C)NC(=O)N(C)c1cnc2ccc(-c3ccc(OCC4CCCN(C)C4)nc3)cc2n1 (stereo not drawn)
-1 | CC(C)NC(=O)N(C)c1cnc2ccc(-c3ccc(OCCCCN(C)C)nc3)cc2n1
1 | CC(C)NC(=O)N(C)c1cnc2ccc(-c3ccc(OCCN4CCCC4)nc3)cc2n1
4 | CC(C)NC(=O)N(C)c1cnc2ccc(-c3ccc(OC(C)CN(C)C)nc3)cc2n1 (stereo not drawn)
